Assay results as given in patent publication US11866416B2, “Streptococcus mutans glucosyl transferase inhibitors for dental caries therapy” (UAB Research Foundation, priority 2018, dated 2024).
Values after ≈ are worked out from the molar mass of the structure shown. Read-outs that look alike come from different tables or passages of the source.

Columns and labels:
S. mutans = assay: microbe, parasite or virus in culture; type: cell-based, Streptococcus mutans; settings: for Selectivity: growth versus biofilm
Description: Cell viability of S. mutans, S. gordonii, S. sanguinis, Aggregatibacter actinomycetemcomitans and Actinomyces. […] The number of colony-forming units (CFU) per milliliter of each sample treated with selected compounds at different concentrations was enumerated after incubation for 24 h at 37° C. and compared to the values obtained from the DMSO control group. Overnight broth cultures were transferred by 1:50 dilutions into fresh THB medium and were allowed to grow until mid-exponential phase (OD470 nm 0.6) before transfer to 96-well plates containing desired concentration of the compound. After 16 h incubation, bacterial growth was measured at OD470, and normalized to the DMSO control (100%).
Cell viability of S. mutans and commensal S. gordonii and S. sanguinis. Effects of lead small molecules on cell viability were examined. The number of colony-forming units (CFU) per milliliter for each compound at different concentrations was determined after incubation for 24 h at 37° C. and compared to the values obtained from the DMSO control group.
Cell viability of S. mutans and commensal S. gordonii and S. sanguinis. […] DMSO served as a control group and provided a relative comparison for the number of colony-forming units (CFU) per milliliter for each compound at different concentrations was determined after incubation for 24 h at 37° C. The final concentration of DMSO used in the assays was 1%.

S. mutans biofilm = S. mutans biofilm formation and inhibition assay (96-well plates, crystal violet); type: cell-based, Streptococcus mutans; settings: Streptococcus mutans
Description: Biofilm assays using 96-well flat-bottom polystyrene microtiter plates were performed to evaluate S. mutans biofilm formation at various conditions as described (Liu et al. (2011) Antimicrobial Agents and Chemotherapy 55, 2679; Zhang et al. (2015) International Journal of Antimicrobial Agents 46, 174), the disclosures of which are incorporated herein by reference in their entirety). Each assay was replicated three times. Compounds that inhibited biofilm formation at minimum concentration (MBIC) were determined by serial dilutions.
S. mutans biofilm formation and inhibition assays. […] Each assay was replicated three times. Minimum biofilm inhibitory concentration (MBIC) of compounds was determined by serial dilutions.
S. mutans biofilm formation and inhibition assays. Biofilm assays using 96-well flat-bottom polystyrene microtiter plates were performed to evaluate S. mutans biofilm formation at various conditions as described. Each assay was replicated […]. Compounds that inhibited 50% biofilm formation were determined by serial dilutions.
S. mutans biofilm formation and inhibition assays. A well-established protocol to study S. mutans biofilm formation in 96-well flat-bottom polystyrene microtiter plates was used, in triplicate (Mattos-Graner, R. O.; Napimoga, M. H.; Fukushima, K.; Duncan, M. J.; Smith, D. J., Comparative analysis of Gtf isozyme production and diversity in isolates of Streptococcus mutans with different biofilm growth phenotypes. Journal of clinical microbiology 2004, 42 (10), 4586-4592). The stock solutions were made up in 100% DMSO, and final concentration of DMSO used in the assays was 1%. Minimum biofilm inhibitory concentration (MBIC) of compounds was determined by serial dilutions.

[1] = Streptococcus mutans, Table 2, >300 = no inhibition up to 300 μM, read-out: Growth Inhibition MIC50
[2] = Table 1, >500 = no inhibition up to 500 μM, read-out: Biofilm Inhibition IC50
[3] = Table 2, read-out: Biofilm Inhibition IC50
[4] = Streptococcus mutans, Table 3, >300 = no inhibition up to 300 μM, NI = no inhibition up to 400 μM, read-out: Growth Inhibition MIC50
[5] = Table 3, read-out: Biofilm Inhibition IC50
[6] = Streptococcus mutans, Table 4, stilbenes, average of at least 5 measurements, NI = no inhibition, read-out: Growth MIC50
[7] = Table 8, stilbenes, average of at least 5 measurements, NI = no inhibition
[8] = Table 4, stilbenes, NI = no inhibition, read-out: Biofilm IC50
[9] = Table 8, stilbenes, NI = no inhibition, read-out: Biofilm IC50

MIC50 (S. mutans; [1]) [µM] | IC50 (S. mutans biofilm; [2]) [µM] | IC50 (S. mutans biofilm; [3]) [µM] | SMILES | further results
> 300 | 50.4 | 50.4 | NC(=O)c1ccccc1OC(=O)c1cc2cc([N+](=O)[O-])ccc2s1 [Compound 3Q] | 
> 300 | 98.3 | 98.3 | NC(=O)c1ccccc1OC(=O)c1ccc2ccccc2c1 [AX] | 
29 (≈ 16 µg/mL) |  | 14 | COC(=O)c1cccc(NC(=O)c2cc3cc(N/C(=N\C(=O)OC(C)(C)C)NC(=O)OC(C)(C)C)ccc3o2)c1 [SN-II-106] | 
 |  |  | COc1ccc(/C=C2\Oc3ccccc3C2=O)c(OC)c1 [LC-I-203] | MIC50 (S. mutans; [4]): > 300 µM; IC50 (S. mutans biofilm; [5]): 40.6 ± 3 µM
> 300 | 63.7 | 63.7 | Cc1ccc(S(=O)(=O)Nc2cccc(NC(=O)c3cc4cc([N+](=O)[O-])ccc4s3)c2)cc1 [AD] | 
 |  |  | O=c1c(O)c(-c2cc(O)c(O)cc2O)oc2ccccc12 [SN-II-92] | MIC50 (S. mutans; [4]): 63.1 ± 4 µM (≈ 18.1 µg/mL); IC50 (S. mutans biofilm; [5]): 19.8 ± 2 µM
> 300 | 54.4 | 54.4 | COC(=O)c1cccc(NC(=O)c2cc3cc([N+](=O)[O-])ccc3s2)c1 [Compound 3U] | 
> 300 | 121 | 121 | COC(=O)c1ccccc1NC(=O)c1ccc2ccccc2c1 [AZ] | 
347 (≈ 108 µg/mL) |  | 5.5 | COC(=O)c1cccc(NC(=O)c2cc3cc(N)ccc3o2)c1 [SN-II-105] | 
> 300 | 56.6 | 56.6 | COc1ccc2[nH]c(C(=O)Nc3cccc(C(N)=O)c3)cc2c1 [Compound 3W] | 
> 300 | 111 | 111 | NC(=O)c1cccc(NC(=O)c2ccc3ccccc3n2)c1 [AV] | 
 |  |  | Oc1cc(O)c2cc(O)c(-c3cc(O)c(O)c(O)c3)[o+]c2c1 [PBF] | MIC50 (S. mutans; [4]): 262 ± 21 µM; IC50 (S. mutans biofilm; [5]): 135 ± 5.6 µM
> 300 |  | 105 | NC(=O)c1ccccc1OC(=O)c1ccc2ccccc2n1 [Compound 298G7] | 
> 300 | 146 | 146 | NC(=O)c1ccccc1NC(=O)c1c[nH]c2ccccc12 [Compound 3F] | 
> 300 | 49.4 | 49.4 | NC(=O)c1cccc(NC(=O)c2ccccc2-c2ccccc2)c1 [BO] | 
> 300 | 31.4 | 31.4 | COC(=O)c1cccc(NC(=O)c2cc3cc([N+](=O)[O-])ccc3[nH]2)c1 [AB] | 
> 300 | 209 | 209 | NCc1cccc(NC(=O)c2cc3ccccc3s2)c1 [BX] | 
> 300 | 122 | 122 | O=C(Nc1ccccc1Br)c1cc2cc([N+](=O)[O-])ccc2s1 [BI] | 
 |  |  | O=C(/C=C/c1ccc(O)c(O)c1)c1ccccc1O [RZ-1-90] | MIC50 (S. mutans; [4]): > 300 µM; IC50 (S. mutans biofilm; [5]): 356 ± 14 µM
 |  |  | COc1cc(O)cc(/C=C/c2ccccc2)c1 [Entry 6] | MIC50 (S. mutans; [6]): 546 ± 25 µM (≈ 124 µg/mL); Selectivity (S. mutans; Table 4, stilbenes): 1.1; Growth MIC50 (S. mutans; [7]): 546 ± 25 µM; Selectivity (S. mutans; Table 8, stilbenes): 1.1; IC50 (S. mutans biofilm; [8]): 477 ± 51 µM; IC50 (S. mutans biofilm; [9]): 477 ± 51 µM
> 300 |  | 138 | NC(=O)c1cccc(NC(=O)c2cc3cc([N+](=O)[O-])ccc3[nH]2)c1 [Compound 298b2] | 
> 300 | 68.8 | 68.8 | COc1ccc2[nH]c(C(=O)Nc3ccccc3C(N)=O)cc2c1 [Compound 3G] | 
 |  |  | O=C(/C=C/c1ccc(O)cc1O)c1cccc(O)c1 [RZ-1-86] | MIC50 (S. mutans; [4]): 469 ± 16 µM (≈ 120 µg/mL); IC50 (S. mutans biofilm; [5]): 32 ± 5 µM
 |  |  | COc1ccc(/C=C/c2cc(O)cc(O[C@@H]3O[C@H](CO)[C@@H](O)[C@H](O)[C@H]3O)c2)cc1O [Entry 12] | MIC50 (S. mutans; [6]): 134 ± 11 µM (≈ 56.3 µg/mL); Selectivity (S. mutans; Table 4, stilbenes): 1.2; Growth MIC50 (S. mutans; [7]): 134 ± 11 µM; Selectivity (S. mutans; Table 8, stilbenes): 1.2; IC50 (S. mutans biofilm; [8]): 106 ± 11 µM; IC50 (S. mutans biofilm; [9]): 106 ± 11 µM

MIC50 (S. mutans; [1]) [µM] | IC50 (S. mutans biofilm; [2]) [µM] | IC50 (S. mutans biofilm; [3]) [µM] | SMILES | further results
> 300 |  | 26.8 | CC(C)(C)OC(=O)NCc1ccccc1NC(=O)c1cc2cc([N+](=O)[O-])ccc2[nH]1 [Compound 298C9] | 
 |  |  | COc1cc(/C=C/c2ccc(OC)c(O)c2)cc(OC)c1 [Entry 9] | MIC50 (S. mutans; [6]): 137 ± 6 µM (≈ 39.2 µg/mL); Selectivity (S. mutans; Table 4, stilbenes): 1.1; Growth MIC50 (S. mutans; [7]): 137 ± 6 µM; Selectivity (S. mutans; Table 8, stilbenes): 1.1; IC50 (S. mutans biofilm; [8]): 122 ± 11 µM; IC50 (S. mutans biofilm; [9]): 122 ± 11 µM
> 300 |  | 180 | O=C(O)c1ccc(NC(=O)c2cc3ccccc3s2)cc1 [SN-I-272VH] | 
> 300 | 2.7 | 2.7 | COC(=O)c1cccc(NC(=O)c2cc3cc([N+](=O)[O-])ccc3o2)c1 [AE] | 
> 300 | 106 | 106 | NCc1ccccc1NC(=O)c1cc2cc([N+](=O)[O-])ccc2s1 [AM] | 
> 300 | 67.5 | 67.5 | CC(C)(C)OC(=O)NCc1ccccc1NC(=O)c1ccc2ccccc2n1 [AP] | 
 |  |  | COc1ccc(/C=C/C(=O)c2ccc(OC)c(OC)c2O)c(OC)c1 [SN-II-24-B6] | MIC50 (S. mutans; [4]): 231 ± 12 µM (≈ 79.4 µg/mL); IC50 (S. mutans biofilm; [5]): 101 ± 3 µM
> 300 | 38.8 | 38.8 | NC(=O)c1cccc(NC(=O)c2cc3cc([N+](=O)[O-])ccc3o2)c1 [Compound 3Z] | 
 |  |  | COc1cc(OC)c(-c2oc3ccccc3c(=O)c2O)cc1OC [AP-I-240] | MIC50 (S. mutans; [4]): 15.3 ± 3 µM (≈ 5.02 µg/mL); IC50 (S. mutans biofilm; [5]): 10.1 ± 1 µM
> 300 | 42.3 | 42.3 | NC(=O)c1cccc(NC(=O)c2cc3cc([N+](=O)[O-])ccc3s2)c1 [Compound 3P] | 
> 300 |  | 250 | [N-]=[N+]=Nc1ccc(NC(=O)c2cc3cc([N+](=O)[O-])ccc3s2)cc1 [SN-I-287] | 
 |  |  | C[n+]1ccc(/C=C/c2ccc(O)c(O)c2)c2ccccc21 [Entry 11] | MIC50 (S. mutans; [6]): > 400 µM; Selectivity (S. mutans; Table 4, stilbenes): 4.0; MIC50 (S. mutans; Table 8, stilbenes, average of at least 5 measurements, NI = no inhibition, read-out: Growth MIC50): >400 µM; Selectivity (S. mutans; Table 8, stilbenes): 4.0; IC50 (S. mutans biofilm; [8]): 104 ± 6 µM; IC50 (S. mutans biofilm; [9]): 104 ± 6 µM
 |  |  | O=C(/C=C/c1ccc(O)c(O)c1)c1ccc(O)c(O)c1O [Okanin (natural), Okanin] | MIC50 (S. mutans; [4]): 534 ± 17 µM (≈ 154 µg/mL); IC50 (S. mutans biofilm; [5]): 64 ± 7 µM
> 300 | 56.9 | 56.9 | NC(=O)c1ccc(NC(=O)c2ccc3ccccc3c2O)cc1 [BN] | 
> 300 | 92.3 | 92.3 | COC(=O)c1ccc(NC(=O)c2cnc3ccccc3c2)cc1 [Compound 3S] | 
> 300 | 103 | 103 | NC(=O)c1ccccc1NC(=O)c1cc2cc([N+](=O)[O-])ccc2o1 [Compound 3K] | 
> 300 |  | 106 | COC(=O)c1ccc(NC(=O)c2ccc3ccccc3n2)cc1 [Compound 298G6] | 
> 300 |  | 4.6 | NC(=O)c1cc(NC(=O)c2cc3cc([N+](=O)[O-])ccc3s2)cc(C(N)=O)c1 [SN-II-50] | 
> 300 | 67.7 | 67.7 | NC(=O)c1cccc(NC(=O)c2ccc3ccccc3c2)c1 [AT] | 
> 300 | 162 | 162 | O=C(Nc1ccccc1F)c1cc2cc([N+](=O)[O-])ccc2s1 [BM] | 
> 300 | 106 | 106 | NC(=O)c1ccccc1NC(=O)c1cnc2ccc(Br)cc2c1 [Compound 3J] | 
> 300 |  | 57.2 | [N-]=[N+]=Nc1ccc2sc(C(=O)Nc3ccccc3C(N)=O)cc2c1 [SN-II-14] | 
> 300 | 56.8 | 56.8 | CC(C)(C)OC(=O)NCc1ccccc1NC(=O)c1ccc2ccccc2c1 [AO] | 

SMILES | MIC50 (S. mutans; [1]) [µM] | IC50 (S. mutans biofilm; [2]) [µM] | IC50 (S. mutans biofilm; [3]) [µM] | further results
NC(=O)c1cc(NC(=O)c2cc3cc([N+](=O)[O-])ccc3s2)ccc1[N+](=O)[O-] [SN-II-59] | > 300 |  | 23.4 | 
